Where a name gives a salt, the structure may show the parent alone.
Molecular target: T1, Recombinant human renin (Homo sapiens, UniProt P00797)
T1 sequence (P00797 67-406): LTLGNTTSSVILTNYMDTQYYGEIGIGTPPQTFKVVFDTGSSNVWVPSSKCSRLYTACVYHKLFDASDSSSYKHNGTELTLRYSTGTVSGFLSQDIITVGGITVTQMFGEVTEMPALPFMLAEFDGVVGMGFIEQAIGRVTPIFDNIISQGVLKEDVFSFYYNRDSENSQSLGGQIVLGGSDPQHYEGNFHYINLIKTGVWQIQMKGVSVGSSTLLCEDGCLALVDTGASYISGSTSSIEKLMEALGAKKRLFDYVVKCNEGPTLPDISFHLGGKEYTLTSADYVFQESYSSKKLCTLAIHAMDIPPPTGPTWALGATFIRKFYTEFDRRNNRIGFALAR
Experiment: In vitro renin inhibitory activity assay (fluorescence, FRET peptide substrate)
Type: biochemical
Details: 37° C., one hour, substrate 4 μM, pH 7.4
Procedure: In Vitro Renin Inhibitory Activity Assay
Recombinant human renin (50 ng) was reacted in 0.1M BEPES buffer (pH 7.4) containing 0.1M NaCl, 1 mM EDTA and 0.1 mg/mL BSA together with a substrate and a test compound at 37° C. for one hour. As the substrate, Arg-Glu(EDANS)-Ile-His-Pro-Phe-His-Leu-Val-Ile-His-Thr-Lys(DABCYL)-Arg or DABCYL-γ-Abu-Ile-His-Pro-Phe-His-Leu-Val-Ile-His-Thr-EDANS was added in such an amount so that the final concentration thereof became 4 μM. The elevated fluorescence intensity at the exciting wavelength 340 nm and the fluorescence wavelength 500 nm was measured by a fluorescence plate reader. The concentration of a test compound to be needed to inhibit an enzyme activity in the presence of a test compound in plural concentrations by 50% was calculated as an IC50 value.
The amino acid sequence disclosed in Seq ID:1 is an amino acid sequence used in the renin inhibitory activity assay.
The amino acid sequence disclosed in Seq ID:2 is an amino acid sequence used in the renin inhibitory activity assay.

IC50 [nM] | SMILES
6.7 | COCCCOc1cc(C(=O)N(C(C)C)[C@@H]2CC[C@H](CCN(C(=O)C=C(C)C)C3CC3)NC2)ccc1OC [Example 68, N-((3R,6R-6-{2-[Cyclopropyl(3-methyl-2-butenoyl)amino]ethyl}piperidin-3-yl)-N-isopropyl-4-methoxy-3-(3-methoxypropoxy)benzamide hydrochloride]
0.79 | COCCCOc1cc(C(=O)N(C(C)C)[C@@H]2CC[C@H](CCN(C(=O)Cc3cccnc3)C3CC3)NC2)ccc1OC [Example 78, N-((3R,6R)-6-{2-[Cyclopropyl(pyridin-3-ylacetyl)amino]ethyl}piperidin-3-yl)-N-isopropyl-4-methoxy-3-(3-methoxypropoxy)benzamide trifluoroacetate]
61 | COCCCOc1cc(C(=O)N(C(C)C)[C@@H]2CC[C@H](CCN(C(=O)CCCO)C3CC3)NC2)ccc1OC [Example 66, N-((3R,6R)-6-{2-[Cyclopropyl(4-hydroxybutanoyl)amino]ethyl}piperidin-3-yl)-N-isopropyl-4-methoxy-3-(3-methoxypropoxy)benzamide hydrochloride]
16.8 | COCCCOc1cc(C(=O)N(C(C)C)[C@@H]2CC[C@H](CCN(C(=O)CCOC)C3CC3)NC2)ccc1OC [Example 64, N-((3R,6R)-6-{2-[Cyclopropyl(3-methoxypropanoyl)amino]ethyl}piperidin-3-yl)-N-isopropyl-4-methoxy-3-(3-methoxypropoxy)benzamide hydrochloride]
4.6 | COCCCOc1cc(C(=O)N(C(C)C)[C@@H]2CC[C@H](CCN(C(=O)Cc3ccccc3OC)C3CC3)NC2)ccc1OC [Example 73, N-[(3R,6R)-6-(2-{Cyclopropyl[(2-methoxyphenyl)acetyl]amino}ethyl)piperidin-3-yl]-N-isopropyl-4-methoxy-3-(3-methoxypropoxy)benzamide trifluoroacetate]
420 | CCCN(CC1CC1)C(=O)C[C@H]1CC[C@@H](N(C(=O)c2ccc(OC)c(OCCCOC)c2)C(C)C)CN1 (racemic) [Example 20, N-((rac.)-(3R,6R)-6-{2-[(Cyclopropylmethyl)(propyl)amino]-2-oxoethyl}piperidin-3-yl)-N-isopropyl-4-methoxy-3-(3-methoxypropoxy)benzamide hydrochloride]
590 | COCCCOc1cc(C(=O)N(C(C)C)[C@@H]2CC[C@H](CC(=O)NC3CC3)NC2)ccc1OC (racemic) [Example 52, N-{ (rac.)-(3R,6R)-6-[2-(Cyclopropylamino)-2-oxoethyl]piperidin-3-yl)-N-isopropyl-4-methoxy-3-(3-methoxypropoxy)benzamide hydrochloride]
540 | COCCCOc1cc(C(=O)N(C(C)C)[C@H]2CNC[C@@H](COc3cccc(OCc4ccccc4)c3)C2)ccc1OC (racemic) [Example 50, hydrochloride]
1.3 | COCCCOc1cc(C(=O)N(C(C)C)[C@@H]2CC[C@H](CCN(C(=O)Cc3cccc(NS(C)(=O)=O)c3)C3CC3)NC2)ccc1OC [Example 81, N-((3R,6R)-6-{2-[Cyclopropyl({3-[(methylsulfonyl)amino]phenyl}acetyl)amino]-ethyl}piperidin-3-yl)-N-isopropyl-4-methoxy-3-(3-methoxypropoxy)benzamide trifluoroacetate]
330 | COCCCOc1cc(C(=O)N(C(C)C)[C@@H]2CC[C@@H](CCN(C(=O)Cc3ccccc3)C3CC3)NC2)ccc1OC (racemic) [Example 23, N-((rac.)-(3R,6S)-6-{2-[Cyclopropyl(phenylacetyl)amino]ethyl}piperidin-3-yl)-N-isopropyl-4-methoxy-3-(3-methoxypropoxy)benzamide hydrochloride]
240 | COCCCOc1cc(C(=O)N(C(C)C)C2CNC[C@@H](COC(=O)NCCc3ccccc3)C2)ccc1OC (mixture of isomers) [Example 31, ((rac.)-(3S,5R)-5-{Isopropyl[4-methoxy-3-(3-methoxypropoxy)benzoyl]amino}-piperidin-3-yl)methyl(2-phenylethyl)carbamate hydrochloride]
2300 | COCCCOc1cc(C(=O)N(C[C@@H]2CCNC2)C(C)C)ccc1OC [Compound B, reference compound]
500 | COCCCOc1cc(C(=O)N(C(C)C)[C@@H]2CC[C@H](CC(=O)N(C(C)C)C3CCCCC3)NC2)ccc1OC (racemic) [Example 51, N-((rac.)-(3R,6R)-6-{2-[Cyclohexyl(isopropyl)amino]-2-oxoethyl}piperidin-3-yl)-N-isopropyl-4-methoxy-3-(3-methoxypropoxy)benzamide hydrochloride]
620 | COCCCOc1cc(C(=O)N(C(C)C)[C@H]2CNC[C@@H](COc3cccc(-c4ccccc4)c3)C2)ccc1OC (racemic) [Example 48, N-{(rac.)-(3R,5S)-5-[(Biphenyl-3-yloxy)methyl]piperidin-3-yl}-N-isopropyl-4-methoxy-3-(3-methoxypropoxy)benzamide hydrochloride]
3.7 | COCCCOc1cc(C(=O)N(C(C)C)[C@@H]2CC[C@H](CCN(C(=O)Cc3ccccc3Cl)C3CC3)NC2)ccc1OC [Example 72, N-((3R,6R)-6-{2-[[(2-chlorophenyl)acetyl](cyclopropyl)amino]ethyl}piperidin-3-yl)-N-isopropyl-4-methoxy-3-(3-methoxypropoxy)benzamide trifluoroacetate]
27.9 | COCCCOc1cc(C(=O)N(C(C)C)[C@@H]2CC[C@H](CCN(C(=O)CC(C)(C)C(N)=O)C3CC3)NC2)ccc1OC [Example 69, N^4-Cyclopropyl-N^4-[2-((2R,5R)-5-{isopropyl[4-methoxy-3-(3-methoxypropoxy)-benzoyl]amino}piperidin-2-yl)ethyl]-2,2-dimethylsuccinamide trifluoroacetate]
930 | CCOC(=O)C[C@H]1CC[C@@H](N(C(=O)c2ccc(OC)c(OCCCOC)c2)C(C)C)CN1 (racemic) [Example 14, Ethyl ((rac.)-(2R,5R)-5-{isopropyl[4-methoxy-3-(3-methoxypropoxy)benzoyl]-amino}piperidin-2-yl)acetate]
770 | COCCCOc1cc(C(=O)N(C(C)C)[C@H]2CNC[C@@H](CNC(=O)OCc3ccccc3)C2)ccc1OC (racemic) [Example 43, Benzyl [((rac.)-(3S,5R)-5-{isopropyl[4-methoxy-3-(3-methoxypropoxy)benzoyl]-amino}piperidin-3-yl)methyl]carbamate hydrochloride]
830 | COCCCOc1cc(C(=O)N(C(C)C)[C@H]2CNC[C@H](COC(=O)NC(C)C)C2)ccc1OC (racemic) [Example 57, ((rac.)-(3R,5R)-5-{Isopropyl[4-methoxy-3-(3-methoxypropoxy)benzoyl]amino}-piperidin-3-yl)methyl isopropylcarbamate hydrochloride]
12.9 | COCCCOc1cc(C(=O)N(C(C)C)[C@@H]2CC[C@H](CCN(C(=O)CC(C)(C)O)C3CC3)NC2)ccc1OC [Example 67, N-((3R,6R)-6-{2-[Cyclopropyl(3-hydroxy-3-methylbutanoyl)amino]ethyl}piperidin-3-yl)-N-isopropyl-4-methoxy-3-(3-methoxypropoxy)benzamide hydrochloride]
740 | COCCCOc1cc(C(=O)N(C(C)C)[C@H]2CNC[C@@H](COc3cccc(Oc4ccccc4)c3)C2)ccc1OC (racemic) [Example 49, N-Isopropyl-4-methoxy-3-(3-methoxypropoxy)-N-{(rac.)-(3R,5S)-5-[(3-phenoxy-phenoxy)methyl]piperidin-3-yl}benzamide hydrochloride]
